Assay results as given in patent publication US12655141B2, “Inhibitors of notch signaling pathway and use thereof in treatment of cancers” (Cellestia Biotech AG, priority 2019, dated 2026).

Experiments:
[1] = tested on: NOTCH positive/driven human T cell acute lymphoblastic leukemia cell line RPMI 8402; assay: Alamar blue anti-proliferative assay; assay type: cell-based; settings: Homo sapiens, RPMI 8402, RPMI8402, 72 hours, concentration range 0.01-10 μM
Procedure: Alamarblue® and PrestoBlue proliferation assays were performed to determine the growth kinetics of Notch inhibitor treated cells. Alamar Blue® and PrestoBlue consists of a cell permeable substrate resazurin. In metabolically active and proliferating cells, resazurin is converted to resorufin due to an intrinsic reducing power of live cells and produces a red fluorescence. Therefore production of resorufin serves as an indicator of the viability of the cell population.
Proliferation assays were performed by seeding 5000 cells/well in a 96 well plate. Cells were treated with DMSO or compounds for 72 hours using concentration ranges of 0.01-10 μM. Each concentration was tested in 4 replicates. To determine the growth kinetics, 10 μl of Alamar Blue® or PrestoBlue (Invitrogen) was added to each well and incubated for 4 hours. Readout was taken using Tecan F500 (Tecan) multiplate reader or Varioskan LUX (ThermoFisher) multiplate reader.
In order to determine anti-cancer potency of compounds compared to 6-(4-tert-butylphenoxy)pyridin-3-amine (described in WO2013/093885), NOTCH positive/driven human T cell acute lymphoblastic leukemia cell line RPMI 8402 was treated with selected compounds.

cMYC = assay: Western blot of RPMI8402 protein lysates: cMYC; assay type: cell-based, human; settings: NOTCH positive leukemic cells, 1 μM, 24 hours, FIGS. 2 and 3
Procedure: (§1) One million human NOTCH positive T-ALL cell line RPMI8402 were treated with NOTCH targeting compounds at 1 μM concentration for 24 hours. Following treatment cells were harvested and washed with 1×PBS. Total RNA and total protein lysates were extracted as described below.
(§2) Cells were lysed in RIPA buffer (50 mM Tris·Cl, pH 7.5, 150 mM NaCl, 1% nonidet P-40, 0.5% sodium deoxycholate and 0.1% SDS) for 30 minutes at 4° C. Lysed cells were centrifuged to remove the debris at 14000 rpm at 4° C. Supernatant was transferred to a new eppendorf tube. The protein concentration was determined by Bradford assay using spectrophotometer (Ultrospec 3000 pro).
(§3) Initially for western blotting, 40 μg of protein were denatured in 1×SDS gel loading buffer (100 mM Tris·Cl, pH 6.8, 200 mM DTT, 4% SDS, 0.2% bromophenol, 20% glycerol) by heating at 99° C. for 5 minutes. Denatured protein samples were stored on ice until loading on to the acrylamide gel. The samples were run on 8% or 10% acrylamide gel in Tris-glycine electrophoresis buffer (25 mM Tris, 250 mM glycine, 0.1% SDS). Following separation on the acrylamide gel, protein samples were transferred on to PVDF membrane (PEQ lab, catalog number 39-3010) using transfer buffer (39 mM glycine, 48 mM Tris base, 0.037% SDS and 20% methanol).
(§4) For immunoblotting, membranes were blocked with 5% milk and incubated overnight with primary antibodies at 4° C. Membrane were washed with 1×TBST (1×TBS+0.5 tween 20) for 5 minutes (3 times) and incubated with HRP-conjugated secondary antibodies for one hour at room temperature. Signal was detected with Super Signal West chemiluminescent substrate (Thermo Scientific, catalog number 34077).
(§5) Total protein lysates were analysed by western blot analysis using N1-ICD (cleaved and active NOTCH1 Intracellular Domain), cMYC and ACTIN specific antibodies.

[2] = tested on: N1-ICD (cleaved and active NOTCH1 Intracellular Domain); assay: Western blot of RPMI8402 protein lysates: N1-ICD; assay type: cell-based, human; settings: NOTCH positive leukemic cells, 1 μM, 24 hours, FIGS. 2 and 3
Procedure: as §1, §2, §3, §4, §5

NOTCH pathway = assay: Western blot, downregulation of NOTCH pathway (N1-ICD and cMYC), FIG. 2 and 3; assay type: cell-based, human; settings: RPMI8402, 1 μM, 24 hours
Procedure: NOTCH positive human leukemic RPMI8402 cells were treated with 1 μM of 6-(4-tert-butylphenoxy)pyridin-3-amine and 6-([1,1′-Biphenyl]-4-yloxy)-N-methylpyridin-3-amine for 24 hours. Following treatment, total protein lysates were extracted and protein expression analysed by western blot.
NOTCH positive human leukemic RPMI8402 cells were treated with 1 μM of 6-(4-tert-butylphenoxy)pyridin-3-amine and 6-((4′-Fluoro-[1,1′-biphenyl]-4-yl)oxy)pyridin-3-amine, 6-([1,1′-Biphenyl]-4-yloxy)-4-methylpyridin-3-amine, 6-([1,1′-Biphenyl]-4-yloxy)-2-methylpyridin-3-amine and N-Methyl-6-((6-phenylpyridin-3-yl)oxy)pyridin-3-amine for 24 hours. Following treatment, total protein lysates were extracted and protein expression analysed by western blot.
as §1, §2, §3, §4

Row | IC50 [1] [nM] | SMILES | downregulation of cMYC compared to 6-(4-tert-butylphenoxy)pyridin-3-amine (cMYC) | downregulation of N1-ICD compared to 6-(4-tert-butylphenoxy)pyridin-3-amine [2] | potency in downregulating NOTCH pathway compared with 6-(4-tert-butylphenoxy)pyridin-3-amine (NOTCH pathway)
1 | 110 | Cc1cc(Oc2ccc(-c3ccccc3)cc2)ncc1N [Example 9, 6-([1,1′-Biphenyl]-4-yloxy)-4-methylpyridin-3-amine] | stronger downregulation | stronger downregulation | enhanced potency
2 | 83 | Nc1ccc(Oc2ccc(-c3ccc(F)cc3)cc2)nc1 [Example 10, 6-((4′-Fluoro-[1,1′-biphenyl]-4-yl)oxy)pyridin-3-amine] | stronger downregulation | stronger downregulation | enhanced potency
3 | 500 | CNc1ccc(Oc2ccc(-c3ccccc3)nc2)nc1 [Example 23, N-Methyl-6-((6-phenylpyridin-3-yl)oxy)pyridin-3-amine] | stronger downregulation | stronger downregulation | enhanced potency
